Test results: PMC3733081 (Journal of chemical information and modeling, 2013)
Where two headings read alike, the source gives them in different places.

Columns and labels:
[1] = n-hexadecane/water; settings: for P (n-hexadecane/water partition coefficient): shake-flask, P=l1/l2, ± error
[2] = n-hexadecane/1-octanol; settings: for logP C16/O: calculated as logPC16/W-logPO/W
[3] = value without superscript b; ref ClogP database; cited from earlier work
[4] = value without superscript a: measured and listed in Table S1; cited from earlier work
[5] = 25 °C, shaking at 25 rpm, fit of eqs 1 and 2

| SMILES | P (n-hexadecane/water partition coefficient) ([1]; 25 °C) | l1 (rate parameter of transport from water to C16) [1, 5] | l2 (rate parameter of transport from C16 to water) [1, 5] | logP C16/O [2] | also measured |
| --- | --- | --- | --- | --- | --- |
| COc1ccccc1OC [1,2-dimethoxybenzene] | (2.723±1.352) ×10^1 | 1.171 ± 0.535 cm/h | (4.301±0.840)×10^−2 cm/h | – | – |
| C(=CC=Cc1ccccc1)C=Cc1ccccc1 [1,6-diphenyl-1,3,5-hexatriene] | – | – | – | 0.188 | – |
| FC1(F)CCC1(F)Cl (stereo not shown) [1-chloro-1,2,2-trifluorocyclobutane] | – | – | – | 1.436 | – |
| CCCCCCCO [1-heptanol] | – | – | – | −1.655 | – |
| Cc1ccc(C=CC=CC=Cc2ccccc2)cc1 [1-methyl-4-(6-phenyl-1,3,5-hexatrien-1-yl)-benzene] | – | – | – | 0.193 | – |
| CCCCCCCCO [1-octanol] | – | – | – | −1.310 | – |
| CCCCCO [1-pentanol] | – | – | – | −1.745 | – |
| CCC(O)c1ccccc1 (stereo not shown) [1-phenyl-1-propanol] | 3.153±0.630 | (3.864±0.154)×10^−1 cm/h | (1.226±0.240)×10^−1 cm/h | – | – |
| C1=Cc2ccccc2C1 [1H-indene] | – | – | – | −0.078 | logP O/W [3]: 2.920 |
| O=C(O)CCCc1c[nH]c2ccccc12 [1H-indole-3-butanoic acid] | – | – | – | −3.531 | – |
| C=CCc1ccccc1O [2-allylphenol] | – | (2.286±0.857)×10^−1 cm/h | (3.211±0.685)×10^−2 cm/h | – | – |
| NC(=O)Cc1ccccc1 [2-phenylacetamide] | – | (1.624±0.359)×10^−2 cm/h | (2.771±0.857)×10^−1 cm/h | – | – |
| Oc1ccccc1-c1ccccc1 [2-phenylphenol] | (3.536±1.329)×10^1 | (3.699±0.935)×10^−1 cm/h | (1.046±0.291)×10^−2 cm/h | – | – |
| Nc1cccc(Br)c1 [3-bromoaniline] | (1.107±0.106)×10^1 | (6.304±0.471)×10^−1 cm/h | (5.693±0.339)×10^−2 cm/h | – | – |
| Cc1c[nH]c2ccccc12 [3-methylindole] | – | – | – | −1.360 | logP C16/W [4]: 0.810 |
| O=C(O)CCc1ccc(C=CC=CC=Cc2ccccc2)cc1 [4-(6-phenyl-1,3,5-hexatrien-1-yl)-benzenepropanoic acid] | – | – | – | −2.702 | – |
| O=C(c1ccccc1)c1ccc(Br)cc1 [4-bromobenzophenone] | (2.891±0.684)×10^2 | (1.054±0.026)×10^1 cm/h | (3.646±0.858)×10^−2 cm/h | – | – |
| Cc1ccc(Cl)cc1[N+](=O)[O-] [4-chloro-2-nitrotoluene] | (8.660±3.938)×10^2 | (2.168±0.605)×10^2 cm/h | (2.504±0.899)×10^−1 cm/h | – | – |
| Cc1cc(O)ccc1Cl [4-chloro-3-methylphenol] | 1.651±0.701 | (1.491±0.611)×10^−1 cm/h | (9.029±1.001)×10^−2 cm/h | – | – |
| O=C(c1ccccc1)c1ccc(Cl)cc1 [4-chlorobenzophenone] | (7.315±2.674)×10^2 | (1.102±0.216)×10^2 cm/h | (1.507±0.465)×10^−1 cm/h | – | – |
| Nc1ccc([N+](=O)[O-])cc1 [4-nitroaniline] | (1.890±0.656)×10^−1 | (1.192±0.406)×10^−1 cm/h | (6.295±0.407)×10^−1 cm/h | – | – |
| CC(C)(C)CC(C)(C)c1ccc(O)cc1 [4-tert-octylphenol] | – | – | – | −1.665 | – |
| O=C(O)Cc1c2ccccc2cc2ccccc12 [9-anthracene-acetic acid] | – | – | – | −2.570 | – |
| NCCc1c2ccccc2cc2ccccc12 [9-anthracene-ethanamine] | – | – | – | −1.549 | – |
| OCc1c2ccccc2cc2ccccc12 [9-anthracenemethanol] | (2.211±0.554)×10^2 | 1.565 ± 0.236 cm/h | (7.080±1.416)×10^−3 cm/h | −0.700 | logP O/W [3]: 3.040 |
| Cc1c2ccccc2cc2ccccc12 [9-methylanthracene] | – | – | – | −0.015 | logP O/W [3]: 5.070 |

| SMILES | P (n-hexadecane/water partition coefficient) ([1]; 25 °C) | l1 (rate parameter of transport from water to C16) [1, 5] | l2 (rate parameter of transport from C16 to water) [1, 5] | logP C16/O [2] | also measured |
| --- | --- | --- | --- | --- | --- |
| c1ccc2c(c1)[nH]c1ccccc12 [9H-carbazole] | – | – | – | −0.851 | – |
| O=C(O)CCCCCCCCCCn1c2ccccc2c2ccccc21 [11-(9-carbazole)-undecanoic acid] | – | – | – | −1.418 | – |
| CNC(=O)c1ccccc1 [N-methylbenzamide] | (6.450±1.180)×10^−1 | (4.982±0.860)×10^−1 cm/h | (7.724±0.467)×10^−1 cm/h | – | – |
| Cn1c2ccccc2c2ccccc21 [N-methylcarbazole] | – | – | – | 0.799 | logP O/W [3]: 3.990 |
| Cn1ccc2ccccc21 [N-methylindole] | – | – | – | 0.969 | – |
| CC(=O)Nc1ccccc1 [acetanilide] | (2.580±0.857)×10^−1 | (1.315±0.434)×10^−1 cm/h | (5.104±0.179)×10^−1 cm/h | – | – |
| Nc1ccccc1 [aniline] | (7.860±1.639)×10^−1 | (1.502±0.286)×10^−1 cm/h | (1.912±0.162)×10^−1 cm/h | – | – |
| CCOC(=O)c1ccc(N)cc1 [benzocaine, reference compound] | 1.560±0.666 | (1.163±0.488)×10^−1 cm/h | (7.455±0.577)×10^−2 cm/h | – | – |
| OCc1ccccc1 [benzylalcohol] | – | – | – | −1.530 | logP C16/W [4]: −0.430 |
| CC(C)(c1ccc(O)cc1)c1ccc(O)cc1 [bisphenol A] | – | – | – | −4.222 | logP C16/W [4]: −0.902 |
| Cn1c(=O)c2c(ncn2C)n(C)c1=O [caffeine, reference compound] | – | (5.485±0.851)×10^−2 cm/h | (2.309±0.430)×10^−1 cm/h | – | – |
| O=C=O [carbon dioxide] | – | – | – | – | affinity for n-hexadecane versus 1-octanol (logPC16/W vs logPO/W, Figure 1) ([2]; small molecules plotted as crosses in Figure 1): not observed |
| CN[C@@H](C)[C@H](O)c1ccccc1 [ephedrine, reference compound] | – | – | – | −1.770 | logP C16/W [4]: −0.840 |
| CCc1ccccc1 [ethylbenzene] | – | – | – | 0.050 | – |
| CCOC(=O)c1cccnc1 [ethylnicotinate] | 3.583±0.983 | (5.074±1.031)×10^−1 cm/h | (1.416±0.261)×10^−1 cm/h | – | – |
| O=CNc1ccccc1 [formanilide] | 2.900±0.955)×10^−1 | (1.532±0.501)×10^−1 cm/h | (5.283±0.213)×10^−1 cm/h | – | – |
| FC(F)(F)C(Cl)Br (stereo not shown) [halothane, reference compound] | – | – | – | −0.200 | logP C16/W [4]: 2.100 |
| c1ccc2[nH]ccc2c1 [indole] | 5.660±0.633 | (6.291±0.522)×10^−1 cm/h | (1.111±0.083)×10^−1 cm/h | −0.920 | – |
| FC(F)OC(Cl)C(F)(F)F (stereo not shown) [isofluorane, reference compound] | – | – | – | −0.410 | – |
| CCCCCc1cc(OC)c2c(c1)OC(C)(C)C1CC=C(C)CC21 (stereo not shown) [methoxy-Δ8-tetrahydrocannabinol] | – | – | – | 0.027 | logP O/W [3]: 8.060 |
| CCCCCCCCCC [n-decane] | – | – | – | 1.030 | logP C16/W [4]: 7.010 |
| O=[N+]([O-])c1ccccc1 [nitrobenzene] | – | – | – | – | l1 (rate parameter of transport from water to C16) [1]: 1.162 ± 0.218 cm/h; l2 (rate parameter of transport from C16 to water) [1]: (3.950±0.694)×10^−2 cm/h |
| c1ccncc1 [pyridine] | – | – | – | – | l1 (rate parameter of transport from water to C16) [1]: (9.512±0.343)×10^−2 cm/h; l2 (rate parameter of transport from C16 to water) [1]: (2.672±0.669)×10^−1 cm/h |
| c1ccc2ncccc2c1 [quinoline] | – | (3.766±0.198)×10^−1 cm/h | (3.566±1.200)×10^−2 cm/h | – | – |
| CC(C)c1c(O)ccc2c1CC[C@H]1C(C)(C)CCC[C@]21C [totarol] | – | – | – | −0.924 | – |
| CCCCCc1cc(O)c2c(c1)OC(C)(C)[C@@H]1CC=C(C)C[C@@H]21 [Δ8-tetrahydrocannabinol] | – | – | – | −2.139 | logP O/W [3]: 7.410 |
